# Reference: ChEMBL document CHEMBL1133366, “Synthesis and structure-activity relationships of 3-cyano-4-(phenoxyanilino)quinolines as MEK (MAPKK) inhibitors” (Bioorg Med Chem Lett, 2000)
# What was measured:
# [1] = target: T1, Serine/threonine-protein kinase RAF and Dual specificity mitogen-activated protein kinase kinase 1 (Raf/MEK) (Homo sapiens, UniProt P04049+Q02750); experiment: Inhibition of ERK-phosphorylation by Raf-MEK-ERK in coupled ELISA; format: protein assay
# [2] = target: Dual specificity mitogen-activated protein kinase kinase 1 (Homo sapiens, UniProt Q02750); experiment: Inhibition of ERK-phosphorylation by MEK-ERK in direct ELISA
# COLO 205 = experiment: cells; details: Homo sapiens
# Description: Inhibition of COLO 205 human colon tumor cell proliferation
# SW-620 = experiment: Inhibition of SW620 human colon tumor cell proliferation
# LoVo = experiment: Inhibition of LoVo human colon tumor cell proliferation
# [3] = target: T1, Serine/threonine-protein kinase RAF and Dual specificity mitogen-activated protein kinase kinase 1 (Raf/MEK); experiment: Inhibition of ERK phosphorylation in coupled Raf-MEK-ERK ELISA (Weakly active); format: protein assay
# Sequence of Dual specificity mitogen-activated protein kinase kinase 1 (Q02750 whole entry): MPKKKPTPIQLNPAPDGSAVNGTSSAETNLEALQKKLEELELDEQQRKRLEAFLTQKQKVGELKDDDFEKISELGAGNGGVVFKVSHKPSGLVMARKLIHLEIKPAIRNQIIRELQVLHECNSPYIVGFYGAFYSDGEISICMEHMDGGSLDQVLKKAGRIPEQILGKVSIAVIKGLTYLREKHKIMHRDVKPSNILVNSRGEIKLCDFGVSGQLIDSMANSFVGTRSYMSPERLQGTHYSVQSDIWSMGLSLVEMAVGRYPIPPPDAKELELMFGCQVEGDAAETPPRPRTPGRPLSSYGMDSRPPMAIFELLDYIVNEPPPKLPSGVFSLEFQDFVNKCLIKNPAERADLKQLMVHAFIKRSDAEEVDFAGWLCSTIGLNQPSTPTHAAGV
Compound,IC50 [1],IC50 [2],IC50 (COLO 205),IC50 (SW-620),IC50 (LoVo),IC50 [3]
COc1cc2c(Nc3ccc(Oc4ccccc4)cc3)c(C#N)cnc2cc1OCCCN1CCOCC1,2.4 nM,7 nM,360 nM,380 nM,190 nM,
COc1cc2c(Nc3ccc(Oc4ccccc4)cc3)c(C#N)cnc2c(OC)c1OC,> 10000 nM,> 10000 nM,,,,
COc1cccc2c(Nc3ccc(Oc4ccccc4)cc3)c(C#N)cnc12,> 10000 nM,> 10000 nM,,,,
COc1cc2c(Nc3ccc(Oc4ccccc4)cc3)c(C#N)cnc2cc1OCCN1CCOCC1,,,630 nM,700 nM,250 nM,
COc1cc2ncnc(Nc3ccc(Oc4ccccc4)cc3)c2cc1OC,,,,,,> 100000 nM

# The remaining lines, values ahead:
IC50 [1],IC50 [2],IC50 (COLO 205),IC50 (SW-620),IC50 (LoVo),IC50 [3],Compound
> 10000 nM,> 10000 nM,,,,,COc1cc2ncc(C#N)c(Nc3ccccc3Oc3ccccc3)c2cc1OC
,,1430 nM,1500 nM,630 nM,,COc1cc2ncc(C#N)c(Nc3ccc(Oc4ccccc4)cc3)c2cc1OC
> 10000 nM,> 10000 nM,,,,,COc1ccc(OC)c2c(Nc3ccc(Oc4ccccc4)cc3)c(C#N)cnc12
